From PMC5982655, “Interaction of the New Monofunctional Anticancer Agent Phenanthriplatin With Transporters for Organic Cations” (Frontiers in Chemistry, 2018)
Entries after “also recorded” stand apart in the source; their conditions may differ.

Experiments:
hOCT1 = target: T1, hOCT1 (Homo sapiens, UniProt O15245); test: Inhibition of ASP+ uptake in HEK 293 cells expressing hOCT1; type: cell-based; conditions: HEK 293 hOCT1, 1 μM ASP+
T1 construct: expressed in transfected cells; gift of H. Koepsell
T1 sequence (O15245 1-554): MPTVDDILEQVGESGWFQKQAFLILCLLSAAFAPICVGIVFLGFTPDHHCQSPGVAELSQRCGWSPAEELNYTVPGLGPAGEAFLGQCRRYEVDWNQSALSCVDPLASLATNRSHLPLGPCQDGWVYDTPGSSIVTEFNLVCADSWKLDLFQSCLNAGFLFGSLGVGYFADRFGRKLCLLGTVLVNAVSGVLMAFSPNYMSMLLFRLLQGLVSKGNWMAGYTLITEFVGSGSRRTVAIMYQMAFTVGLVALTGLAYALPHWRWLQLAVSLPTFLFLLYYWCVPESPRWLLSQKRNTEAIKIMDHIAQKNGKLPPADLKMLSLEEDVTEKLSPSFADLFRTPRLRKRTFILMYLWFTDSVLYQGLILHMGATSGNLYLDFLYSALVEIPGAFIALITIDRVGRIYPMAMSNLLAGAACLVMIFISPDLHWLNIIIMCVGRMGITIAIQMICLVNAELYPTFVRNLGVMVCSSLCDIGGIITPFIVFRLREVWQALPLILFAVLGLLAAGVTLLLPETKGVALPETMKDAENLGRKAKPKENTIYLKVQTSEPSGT
Experimental: (§1) The interaction of phenanthriplatin with transporters for organic cations (OCT1-3, MATE1, and MATE2K) was investigated by measuring its effects on the uptake of the fluorescent organic cation 4-(4-dimethylamino)styryl-N-methylpyridinium (ASP^+). Microfluorometric measurements of ASP^+ uptake were performed with a fluorescence plate reader (Infinity 200, Tecan, Crailsheim, Germany; excitation at 465 nm, emission at 590 nm) as described previously for cultured HEK 293 cells (Wilde et al., [2009]). Before measurements, the culture medium in the wells of the 96 well microtiter plate containing HEK 293 cells was replaced by a HCO3- -free Ringer-like solution containing (in mM) NaCl 145, K2HPO4 1.6, KH2PO4 0.4, D-glucose 5, MgCl2 1, calcium gluconate 1.3, and pH adjusted to 7.4. Fluorescence was measured dynamically at 37°C in each well before and after ASP^+ addition to HCO3- -free Ringer-like solution, alone or together with increasing phenanthriplatin concentrations, and plotted versus time. ASP^+ (final concentration 1 or 10 μM for experiments with OCTs or MATEs, respectively) was added after the third sampling interval. Emission from the complete area of the well bottom was analyzed four times and averaged for each well. […] Background fluorescence was measured for each plate in wells with identical solutions containing no cells and subtracted from each well containing cells. Experiments were performed with cells from one passage of the same day with controls and test replicates in the same plate.
(§2) Data are presented as mean values ± SEM, with (n) referring to the number of wells. IC50 values defined as the concentration of platinum agent required to inhibit uptake of ASP^+ by 50% and EC50 values used to assess cell viability were obtained by sigmoidal concentration-response curve fitting using GraphPad Prism, Version 5.3 (GraphPad Software, San Diego, USA). […] For multiple comparisons, ANOVA with Bonferroni post-test was used. A P-value < 0.05 was considered statistically significant.

hMATE2K = target: T2, hMATE2K (Homo sapiens, UniProt Q86VL8); test: Inhibition of ASP+ uptake in HEK 293 cells expressing hMATE2K; type: cell-based; conditions: HEK 293 hMATE2K, 10 μM ASP+
T2 construct: expressed in transfected cells
T2 sequence (Q86VL8 1-566 isoform Q86VL8-3): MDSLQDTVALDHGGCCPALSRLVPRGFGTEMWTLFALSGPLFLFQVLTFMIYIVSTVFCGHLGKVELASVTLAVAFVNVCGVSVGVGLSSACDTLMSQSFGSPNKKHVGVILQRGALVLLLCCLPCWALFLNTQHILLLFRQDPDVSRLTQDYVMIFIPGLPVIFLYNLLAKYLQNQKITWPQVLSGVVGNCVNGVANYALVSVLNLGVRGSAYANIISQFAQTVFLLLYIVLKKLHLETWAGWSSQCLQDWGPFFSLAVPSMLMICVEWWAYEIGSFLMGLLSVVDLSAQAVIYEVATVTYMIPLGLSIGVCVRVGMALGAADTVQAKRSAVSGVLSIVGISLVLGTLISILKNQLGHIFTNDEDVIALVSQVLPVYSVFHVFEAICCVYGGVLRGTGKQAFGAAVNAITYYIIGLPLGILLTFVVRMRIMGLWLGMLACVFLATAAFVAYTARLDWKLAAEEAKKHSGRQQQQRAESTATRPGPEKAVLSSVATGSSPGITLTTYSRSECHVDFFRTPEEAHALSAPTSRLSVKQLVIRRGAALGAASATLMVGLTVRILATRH
Experimental: as §1, with “Experiments were performed with cells from one passage of the same day with controls and test replicates in the same plate.” left out

HEK 293 hOCT2 cells = test: MTT cell viability, HEK 293 hOCT2 cells; type: cell-based, human; conditions: 10 min
Experimental: (§3) A modified 3-(4,5-dimethylthiazol-2-yl)-2,5-diphenyltetrazolium bromide (MTT) assay (Mosmann, [1983]) was used to test the chemosensitivity of cells to phenanthriplatin and, in some experiments, to cisplatin by determining the glycolysis rate via the reduction of the yellow tetrazolium salt MTT to a purple formazan dye, as previously described (Wehe et al., [2014]). Briefly, after growing for 24 h in the incubator, cells expressing or not hOCT2, hMATE1, hMATE2 or Ctr1 were treated for 10 min with platinum derivatives. Control cells were incubated with drug-free complete cell culture medium. Afterwards, the medium was carefully removed and replaced by 200 μL of fresh complete cell culture medium. After incubation for another 24 h, 10 μL of MTT solution containing 5 mg/mL of the dye were added to each well, and the cells were again incubated for 3 h. The medium was then removed and 100 μL of lysis buffer containing 10% (w/v) sodium dodecyl sulfate and 40% (v/v) dimethylformamide was added to each well. The plates were shaken for 10 min to destroy the cell structure and dissolve the blue formazan dye (Furchert et al., [2007]; Wehe et al., [2014]). Finally, the absorbance was measured at 590 nm using an automated microtiter plate reader (Infinite M200; Tecan, Männedorf, Switzerland). The percentage of viable cells in the untreated controls was compared to that for the various treatments. Experiments carried out with DAOY and UW228 cells followed a similar protocol except that these cells were incubated for 24 h with phenanthriplatin.

HEK293 hMATE2K cells = test: MTT cell viability, HEK293 hMATE2K cells; type: cell-based, human; conditions: 100 μM phenanthriplatin
Experimental: as §3, with “Experiments carried out with DAOY and UW228 cells followed a similar protocol except that these cells were incubated for 24 h with phenanthriplatin.” left out

DAOY cells = test: MTT cell viability, DAOY medulloblastoma cells; type: cell-based
Experimental: as §3, §2

UW228 cells = test: MTT cell viability, UW228 medulloblastoma cells; type: cell-based
Experimental: as §3, §2

In the case of N.N.[Cl][Pt+].c1ccc2c(c1)cnc1ccccc12 [phenanthriplatin, cis-[Pt(NH3)2Cl(phenanthridine)]^+], the IC50 (hOCT1) is reported as 19 µM, the “logIC50 (logEC50) ± SEM for inhibition of ASP+ uptake” value (hOCT1) is reported as −4.72 ± 0.21 and the IC50 (hMATE2K) is reported as 57 µM. The “logIC50 (logEC50) ± SEM for inhibition of ASP+ uptake” value (hMATE2K) was −4.24 ± 0.07, the “Cell viability (MTT)” value (HEK 293 hOCT2 cells; HEK 293 hOCT2, 10 μM phenanthriplatin + 100 μM cimetidine) was “reduced upon co-incubation of phenanthriplatin with cimetidine” and the “Cell viability (MTT)” value (HEK 293 hOCT2 cells; HEK 293 hOCT2, 10 μM phenanthriplatin) was “significant phenanthriplatin toxicity”. The “Cell viability (MTT)” value (HEK293 hMATE2K cells) was “induces significant cell toxicity”, the “Protection from phenanthriplatin toxicity by cimetidine (cell viability, MTT)” value (DAOY cells; 24 h, 1 μM phenanthriplatin + 10-fold higher cimetidine) was “efficaciously protected against phenanthriplatin toxicity by cimetidine; also recorded: significantly decreased the toxicity of this compound in DAOY” and the EC50 (DAOY cells; 24 h incubation, MTT) was 0.9 µM. For the same compound, the “logEC50 ± SEM for viability” value (DAOY cells; 24 h incubation, MTT) was −6.05 ± 0.02, the “Protection from phenanthriplatin toxicity by cimetidine (cell viability, MTT)” value (UW228 cells; UW228, 24 h, 3 μM phenanthriplatin + 10-fold higher cimetidine) was “not in UW228 cells” and the EC50 (UW228 cells; UW228, 24 h incubation, MTT) was 2.8 µM. For the same compound, the “logEC50 ± SEM for viability” value (UW228 cells; UW228, 24 h incubation, MTT) was −5.55 ± 0.03.
